≈ marks a conversion by molar mass, not a printed value.

For data set [1], the system named is Bacillus subtilis. Put plainly: Toxicity (MIC) of MAcBCE and MAkBCE compounds on B. subtilis. The format is cell-based. The conditions noted are these: B. subtilis 168 WT with pRB374, 12 h, up to 400 μM. On the procedure: XL1 blue strain Escherichia coli cells transformed with pET28a plasmid containing a kanamycin resistance gene, were grown at 37° C. in 2 mL of LB medium (Miller's LB broth, Research Products International) supplemented with 50 μg/mL of kanamycin, until the optical density (OD600) reached 0.6. The starting density of bacteria in the remainder of the experiments was a 1/100 dilution of this bacterial density, which was split into 4 mL cultures. A series of 400, 100, 10 and 5 mM stock solutions of each monoacylated benzo(crown-ether) (MAcBCE) and monoalkylated benzo(crown-ether) (MAkBCE) compounds in trifluoroethanol (TFE) were diluted by addition to the 4 mL cultures to reach final concentrations of 400, 200, 100, 50, 20, 15, 10, 5, 4, 3, 2 and 1 μM. The final TFE concentration was never higher than 0.1% v/v. Negative controls in the presence of TFE 0.1% v/v or in the absence of any treatment for each batch gave similar bacterial growth. The cultures were incubated at 37° C. with agitation for 12 h. Bacillus subtilis (168 WT) toxicity tests were carried out using an identical protocol, except they were transformed with the shuttle plasmid pRB374 in the presence of 5 μg/mL of kanamycin. […] Each compound was assayed a minimum of three times at each tested concentration.
The cytotoxicity of MABCE compounds was determined by measuring the MIC in liquid cultures of either the gram-negative bacteria Escherichia coli or the gram-positive bacteria Bacillus subtilis. […] As some curves overlap, portions of them are hidden. Values of MIC of 400 μM indicate that the value was either 400 μM, or it was higher and then was not determined. Each compound was assayed a minimum of three times at each different concentration. MICs for 5-A-4, 5-A-11, 6-A-11 and 6-O-11 could not be determined because the compounds were not soluble in TFE. While E. coli was not susceptible to any of the tested compounds at concentrations as high as 400 μM (data not shown), B. subtilis was susceptible to MABCE compounds bearing 15-crown-5 and 18-crown-6 scaffolds, but not to compounds containing a 12-crown-4 scaffold, as shown in FIG. 1.

For data set [2], the system named is B. subtilis membranes. The data set can be described thus: DiSC3(5) depolarization assay, MAcBCE/MAkBCE. The conditions noted are these: 2 μM compound, 60 mM KCl, NaCl or NMDG-Cl; for change in DiSC3(5) fluorescence (membrane depolarization): 25° C, 10 minutes. The format is cell-based, Bacillus subtilis. As to the method: A 2 mL liquid culture of transformed B. subtilis cells was grown at 37° C. in LB medium supplemented with 5 μg/mL kanamycin until OD600=0.6 was reached. The cells were collected by centrifugation at 2000 rpm over 3 min. The bacteria were washed twice with an NMDG-MeSO3 solution (100 mM NMDG, 10 mM HEPES, pH adjusted to 7.4 with methane sulfonic acid). […] The working dye solution was a 200 μM solution of DiSC3(5) (3,3′-dipropylthiadicarbocyanine iodide; Tokyo Chemical Industry) in DMSO. A series of 2 M solutions of NMDG-Cl, NaCl and KCl were prepared containing 10 mM HEPES; the pH was adjusted to pH 7.4 with NMDG, NaOH or KOH, respectively, to avoid any pH changes after their addition. The experiment was initiated with 3 mL of NMDG-MeSO3 in a quartz cuvette, then 5 μL of the dye solution was added (timepoint t1, 50 sec) for a 0.3 μM final concentration by the end of experiment. This was followed by the addition of 100 μL of the B. subtilis suspension (timepoint t2, 100 sec). After 150 sec (timepoint t3, 250 sec), the fluorescence stabilized to a minimum intensity and 100 μL of the 2 M NMDG-Cl, NaCl or KCl solution was added to reach ˜60 mM final concentration of the salt. The final step was the addition 0.64 μL of a 10 mM stock solution of the desired MAcBCE or MAkBCE compound in TFE (timepoint t4, 400 sec), for a final concentration of 2 μM. Negative controls were performed by adding the same volume of pure TFE to the cuvette at timepoint t4. Fluorescence intensity was recorded each second using a Horiba Fluoromax 4 spectrometer (λexcitation=640 nm; λemission=670 nm). The solution inside the cuvette was vigorously mixed throughout the experiment by using a magnetic stirrer and the temperature was kept constant at 25° C. For purposes of normalization, the fluorescence intensity was divided by the fluorescence level just before timepoint t2.
To determine whether MAcBCE or MAkBCE compounds catalyse ion-selective flux, a set of highly bioactive members bearing ten-carbon chain lengths were tested for their ability to depolarize B. subtilis membranes using a test based on the fluorescent dye 3,3-dipropylthiadicarbocyanine (DiSC3(5)). This set of compounds were selected as four of the most toxic members of the MAcBCE and MAkBCE compound library (5-O-10, 5-A-10, 6-O-10, and 6-A-10; FIG. 3) belong to this group and all are soluble in TFE. The two non-toxic benzo(12-crown-4) scaffold members (4-O-10 and 4-A-10; FIG. 3) were used as controls.
FIGS. 4 and 5 show the time course of DiSC3(5) fluorescence due to the addition of 2 μM 6-A-10 (FIG. 4) and 6-O-10 (FIG. 5). The average of the final fluorescence values (mean±S.E.M.) of at least three experiments are shown in FIGS. 4 and 5 and are similarly plotted for 4-A-10 (FIG. 6), 5-A-10 (FIG. 7), 6-A-10 (FIG. 8), 4-O-10 (FIG. 9), 5-O-10 (FIG. 10), and 6-O-10 (FIG. 11). Experiments were performed in a NMDG-MeSO3 solution (100 mM NMDG, 10 mM HEPES, pH adjusted to 7.4 with methane sulfonic acid). The events are: t1, addition of dye; t2, addition of B. subtilis; t3, addition of a 2 M NMDG-Cl, 2 M NaCl or a 2 M KCl solution up to a final concentration of 60 mM; t4, addition of each MAcBCE or MAkBCE compound up to 2 μM. Experiments were repeated at least four times per condition and normalized relative to the fluorescence intensity just before the addition of cells.
The potentiometric dye DiSC3(5) was used to measure the ability of MAcBCE and MAkBCE compounds to catalyse ion-selective transport. DiSC3(5) undergoes membrane voltage-dependent partitioning between the intracellular and the extracellular medium. DiSC3(5) accumulates within a cell with a polarized membrane (negatively charged inside the cell) and is released when the cell membrane is depolarized (positively charged inside the cell). The membrane voltage in B. subtilis is roughly −120 mV, leading to DiSC3(5) accumulation in the bacteria (timepoint t2 in FIG. 4A-B). […]

A short description of data set [3]: Solubility in trifluoroethanol (TFE). The format is physicochemical. The conditions noted are these: trifluoroethanol stock solutions.
Data set [4] has as its system Bacillus subtilis. Put plainly: Toxicity (MIC) of dialkylated lariat ethers on B. subtilis. The format is cell-based. The following applies: B. subtilis 168 WT, 12 h, visual turbidity, read-out: minimum inhibitory concentration (MIC). On the procedure:
The cyto-toxicity was determined by measuring the minimum inhibitory concentrations (MIC) for this series of dialkylated lariat ethers in the Gram-negative bacteria Escherichia coli, the Gram-positive bacteria Bacillus subtilis, and human embryonic kidney (HEK293T) cells.
On bacteria. XL1 blue strain Escherichia coli cells transformed with a pET28a plasmid (which contains a kanamycin resistance gene) were grown at 37° C. in 2 mL of LB medium (Miller's LB broth, Research Products International) supplemented with 50 μg/mL of kanamycin until the optical density (600 nm) reached 0.600. The starting density of bacteria in the remainder of the experiments was a 1/100 dilution of this bacterial density, which was split into 4 mL cultures. A series of 400, 100, 10 and 5 mM stock solutions of each dialkylated diaza(18-crown-6) compounds in trifluoroethanol (TFE) were diluted by adding to the 4 mL cultures until final concentrations of 400, 200, 100, 50, 20, 15, 10, 5, 4, 3, 2 and 1 μM were reached, with the final TFE concentration never >0.1% v/v. Negative controls in the presence of TFE 0.1% v/v or the absence of any treatment were done for each batch. The cultures were incubated at 37° C. with agitation for 12 h. Bacillus subtilis (168 WT) toxicity tests were carried out using an identical protocol, except for the addition of the antibiotic. […] Each compound was assayed a minimum of three times at each tested concentration.

`CCCCCCCCCCc1ccc2c(c1)OCCOCCOCCO2` [Compound 4-A-10, 12-decyl-2,3,5,6,8,9-hexahydrobenzo[b][1,4,7,10]tetraoxacyclododecine]: the “toxicity / susceptibility of B. subtilis (MIC, FIG. 1)” value (“toxicity / susceptibility” for short) in data set [1] is reported as “non-toxic”. For the same molecule, the “change in DiSC3(5) fluorescence (membrane depolarization)” value in data set [2] is listed as “negligible”. `CCCCCCCCCC(=O)c1ccc2c(c1)OCCOCCOCCO2` [Compound 4-O-10, 1-(2,3,5,6,8,9-hexahydrobenzo[b][1,4,7,10]tetraoxacyclododecin-12-yl)decan-1-one]: the “toxicity / susceptibility” value in data set [1] is “non-toxic”. Also, in data set [2], the “change in DiSC3(5) fluorescence (membrane depolarization)” value is on record as “negligible”. For the molecule `CCCCc1ccc2c(c1)OCCOCCOCCOCCO2` [Compound 5-A-4, 15-butyl-2,3,5,6,8,9,11,12-octahydrobenzo[b][1,4,7,10,13]pentaoxacyclopentadecine], the “solubility in TFE” value in data set [3] is listed as “not soluble”. With `CCCCCCCCCCc1ccc2c(c1)OCCOCCOCCOCCO2` [Compound 5-A-10, 15-decyl-2,3,5,6,8,9,11,12-octahydrobenzo[b][1,4,7,10,13]pentaoxacyclopentadecine], in data set [1], the “toxicity / susceptibility” value is reported as “most toxic”. For the same molecule, the “kinetics of the depolarization, ion dependence” value in data set [2] is “fastest in presence of K^+ followed by Na^+ and then NMDG^+”. Regarding `CCCCCCCCCCCc1ccc2c(c1)OCCOCCOCCOCCO2` [Compound 5-A-11, 15-undecyl-2,3,5,6,8,9,11,12-octahydrobenzo[b][1,4,7,10,13]pentaoxacyclopentadecine], in data set [3], the “solubility in TFE” value is listed as “not soluble”.

As to `CCCCCCCCCC(=O)c1ccc2c(c1)OCCOCCOCCOCCO2` [Compound 5-O-10, 1-(2,3,5,6,8,9,11,12-octahydrobenzo[b][1,4,7,10,13]pentaoxacyclopentadecin-15-yl)decan-1-one], the “toxicity / susceptibility” value in data set [1] was “most toxic”. In addition, in data set [2], the “kinetics of the depolarization, ion dependence” value was “fastest in presence of K^+ followed by Na^+ and then NMDG^+”. As to `CCCCCCCCCCCc1ccc2c(c1)OCCOCCOCCOCCOCCO2` [Compound 6-A-11, 18-undecyl-2,3,5,6,8,9,11,12,14,15-decahydrobenzo[b][1,4,7,10,13,16]hexaoxacyclooctade-cine], in data set [3], the “solubility in TFE” value was “not soluble”. With `CCCCCCCCCCC(=O)c1ccc2c(c1)OCCOCCOCCOCCOCCO2` [Compound 6-O-11, 1-(2,3,5,6,8,9,11,12,14,15-decahydrobenzo[b][1,4,7,10,13,16]hexaoxacyclooctadecin-18-yl)undecan-1-one], the “solubility in TFE” value in data set [3] is “not soluble”. Consider `CCCCCCCCCCCN1CCOCCOCCN(CCCCCCCCCCC)CCOCCOCC1` [LEC11, Diundecyl diaza(18-crown-6)], for which, in data set [4], the MIC was determined as 2 µM (≈ 1.14 µg/mL). Still for that read-out and setting: the figure for `CCCCCCCCCCCCN1CCOCCOCCN(CCCCCCCCCCCC)CCOCCOCC1` [LEC12, Didodecyl diaza(18-crown-6)] is 2 µM (≈ 1.2 µg/mL). The same measure, in the same setting: to `CCCCCCCCCCCCCN1CCOCCOCCN(CCCCCCCCCCCCC)CCOCCOCC1` [LEC13, Ditridecyl diaza(18-crown-6)] belongs more than 400 µM.

Source of the values: patent US20230060873A1, “COMPOUNDS AND METHODS FOR FORMING ION CHANNELS IN BIOLOGICAL MEMBRANES” (Washington University, priority 2021, published 2023).
